According to patent US4406899A, “Cephalosporins” (Bristol-Myers Company, priority 1982, dated 1983):
Converted amounts (≈) assume the structure as drawn.

What was measured:
Assay type in all cases: cell-based
[1] = system: Penicillinsensitive S. aureus (5 strains); experiment: MIC, two-fold serial agar dilution, group (G+)-Ia; conditions: Staphylococcus aureus; Mueller-Hinton agar; penicillin-sensitive S. aureus; read-out: Geometric Mean of MIC (G+)-Ia (5 strains)
Protocol: (§1) In the primary evaluation of the compounds of this invention, the Minimum Inhibitory Concentrations (MIC's) of the compounds and two reference compounds (cefotaxime and ceftazidime) were determined by the two-fold serial agar dilution method in Mueller-Hinton agar against 32 strains of test organisms in six groups.

[2] = system: Penicillinresistant S. aureus (5 strains); experiment: MIC, two-fold serial agar dilution, group (G+)-Ib; conditions: Staphylococcus aureus, read-out: Geometric Mean of MIC (G+)-Ib (5)
Protocol: as §1
(G+)Ib: Penicillinresistant S. aureus (5 strains)

[3] = system: Cephalothinsensitive E. coli (2 strains), Kl. pneumoniae (1 strain) and Pr. mirabilis (2 strains); experiment: MIC, two-fold serial agar dilution, group (G-)-Ia; conditions: Mueller-Hinton agar; cephalothin-sensitive; read-out: Geometric Mean of MIC (G-)-Ia (5)
Protocol: as §1, with “The preferred compounds of Formula I are those in which R^1 is hydrogen and R^2 is methyl or ethyl. In the most preferred compound, R^2 is methyl. In the” for “In the”
(G-)Ia: Cephalothinsensitive E. coli (2 strains), Kl. pneumoniae (1
strain) and Pr. mirabilis (2 strains)

[4] = system: Cephalothinresistant E. coli (3 strains) and Kl. pneumoniae (3 strains); experiment: MIC, two-fold serial agar dilution, group (G-)-Ib; conditions: Escherichia coli, read-out: Geometric Mean of MIC (G-)-Ib (6)
Protocol: as §1

[5] = system: Pr. morganii (1 strain), Ent. cloacae (2 strains) and Ser. marcescens (2 strains); experiment: MIC, two-fold serial agar dilution, group (G-)-II; conditions: Mueller-Hinton agar; read-out: Geometric Mean of MIC (G-)-II (5)
Protocol: as §1

[6] = system: Ps. aeruginosa (6 strains); experiment: MIC, two-fold serial agar dilution, group (G-)-III; conditions: Pseudomonas aeruginosa; Mueller-Hinton agar; Ps. aeruginosa; read-out: Geometric Mean of MIC (G-)-III (6)
Protocol: as §1

Structure (SMILES) | MIC [1] | MIC [2] | MIC [3] | MIC [4] | MIC [5] | MIC [6]
CC(C)O/N=C(\C(=O)NC1C(=O)N2C(C(=O)[O-])=C(C[N+]3(C)CCCC3)CSC12)c1csc(N)n1 (stereo not drawn) [Compound Ic, 7-[(Z)-2-(2-Propoxyimino)-2-(2-aminothiazol-4-yl)acetamido]-3-[(1-methyl-1-pyrrolidinium)methyl]-3-cephem-4-carboxylate] | 1.4 µg/mL (≈ 2.75 µM) | 3.6 µg/mL (≈ 7.08 µM) | 0.35 µg/mL (≈ 0.688 µM) | 1.3 µg/mL (≈ 2.56 µM) | 3.2 µg/mL (≈ 6.29 µM) | 11 µg/mL (≈ 21.6 µM)
CCO/N=C(\C(=O)NC1C(=O)N2C(C(=O)[O-])=C(C[N+]3(C)CCCC3)CSC12)c1csc(N)n1 (stereo not drawn) [Ib, 7-[(Z)-2-Ethoxyimino-2-(2-aminothiazol-4-yl)acetamido]-3-[(1-methyl-1-pyrrolidinium)methyl]-3-cephem-4-carboxylate] | 1.4 µg/mL (≈ 2.83 µM) | 3.1 µg/mL (≈ 6.27 µM) | 0.087 µg/mL (≈ 0.176 µM) | 0.32 µg/mL (≈ 0.647 µM) | 1 µg/mL (≈ 2.02 µM) | 5.6 µg/mL (≈ 11.3 µM)
C=CCO/N=C(\C(=O)NC1C(=O)N2C(C(=O)[O-])=C(C[N+]3(C)CCCC3)CSC12)c1csc(N)n1 (stereo not drawn) [Id, 7-[(Z)-2-Allyloxyimino-2-(2-aminothiazol-4-yl)acetamido]-3-[(1-methyl-1-pyrrolidinium)methyl]-3-cephem-4-carboxylate] | 1.8 µg/mL (≈ 3.55 µM) | 3.6 µg/mL (≈ 7.11 µM) | 0.53 µg/mL (≈ 1.05 µM) | 1.1 µg/mL (≈ 2.17 µM) | 2.4 µg/mL (≈ 4.74 µM) | 13 µg/mL (≈ 25.7 µM)
